The subject of assay [1] is SUIT 2.28. In words: SRB chemosensitivity assay, SUIT 2.28 cells. In kind it is cell-based. The settings on record: read-out: IC50 SUIT 2.28. How it is done:
(§1) Three lines of immortalized PDAC cells were selected as representative phenotypes: mesenchymal (PATU‐T), quasimesenchymal (PANC‐1), and an epithelial clone of SUIT 2 cells (SUIT 2.28). Cells were cultured in noncoated T‐75 and T‐25 flasks under adherent conditions, using 1× DMEM (Gibco, 41,966,029) for PATU‐T and RPMI (Gibco, 21,875,034) for SUIT 2.28 and PANC‐1, both supplemented with 10% NBCS and 1% P/S. Additional employed models were the PDAC3 cells, a primary cell culture, the PSCs, which were immortalized healthy pancreatic cells, and the PATU‐T‐GR, which was a gemcitabine resistant model of PATU‐T. PDAC3 and PSCs were cultivated using complete RPMI medium, while PATU‐T‐GR required complete DMEM medium. For seeding, cells were detached with Trypsin‐EDTA (0.05%) (GibcoTM, 25,300–096) and were consequently counted using the Automated Cell Counter (Luna‐II, Westburg). Cells were then plated on 96‐ or 6‐well plates depending on the planned experiment.
(§2) The Sulforhodamine B (SRB) chemosensitivity assay was used to measure cytotoxicity and cell proliferation post drug treatment. At day 0, 3–6 × 10^3 cells were seeded in a 96‐well plate, depending on the cell line. At day 1, cells were attached and ready to be treated. For the calculation of the IC50, drug dilutions for the compounds 1b, 1c, 1d, 1e, 1g, 1hr, 1i, 1j, and LDC4297 (MedChemExpress, HY‐12,653) were prepared in dilution trays and eight different concentrations were included. These were added in triplicates to the cells, which were then incubated for […] at 37 °C in 5% CO2. During day 1, the control plate was fixed with 50% Trichloroacetic acid (TCA), as intended to be the baseline plate used for the normalization of the data. 72 h post‐treatment, the cells were fixed with TCA, and placed at 4 °C for about 2 h. The plates were then washed with distillated water and left to dry under the hood with ventilation. Subsequently, plates were stained with 0.4% SRB for 15 min and washed with 1% acetic acid to remove excess stain. Once dried again, the protein‐bound SRB was dissolved in 10 mM TRIS, and the plates were placed on a shaker for 10 min per plate. Lastly, the absorbance was measured at 492 nm with a spectrophotometer (Synergy HT, BioTek). The absorbance data obtained were normalized to the day 1 control, and the percentage of cell growth in relation to the control was calculated using the following formula. (1) %Cell growth=Mean OD treatment−Mean OD day0/Mean OD control−Mean OD day0×100
(§3) The percentage of proliferation and their respective standard deviations were used to perform statistical analysis in GraphPad Prism software v 10 (GraphPad Software, San Diego, CA). Data were normalized to the day 0 control and to their own untreated 72 h control. These were transformed into logarithmic data, and log(inhibitor) versus response analysis was performed for obtaining the IC50 values per cell lines. Each experiment was conducted in triplicates.

In assay [2] the test system is PANC‐1. The assay can be described thus: SRB chemosensitivity assay, PANC‐1 cells. In kind it is cell-based. The following applies: Homo sapiens, read-out: IC50 PANC‐1. On the procedure: as §1, §2, §3
On the technique in general: The SRB assay estimates cell density from bound dye.

For assay [3], the system named is PATU‐T. In words: SRB chemosensitivity assay, PATU‐T cells. In kind it is cell-based. The settings on record: read-out: IC50 PATU‐T. On the procedure:
as §1, §2, §3

Assay [4] concerns PATU‐T. The assay can be described thus: Wound healing assay, PATU‐T. In kind it is cell-based. The settings on record: 1 × IC50 and 4 × IC50, 4 to 24 h. How it is done:
The wound healing assay was used to test the migratory ability of the selected cells post‐treatment. Cells (5 × 10^4 /well) were seeded on 96‐well. After 24 h, cells reached the optimal 100% confluency, and an artificial wound was created with a 96‐well Pintool Scratcher. The cells were immediately washed with complete medium, in order to remove cell debris after the scratch, and images of the wells were captured at time 0 h, right before the addition of the treatment. Each drug (1b and 1g) was previously diluted in the respective medium at two different concentrations: 1 × IC50 and 4 × IC50 (according to the cell specific IC50 value) and were then added to the cells. Images were then taken at timepoints 4, 8, 20, and 24 h using the Leica microscope with a JAI TMC‐137 camera to assess wound closure. The images were analyzed using the Universal Grab 6.3 software (DCILabs), and the obtained data were used to determine the percentage of migration of the cells, using the following formula. (2) % Migration=Mean width of the wound atT=0−Mean width of the wound atT=X/Mean width of the wound atT=0×100

In assay [5] the test system is CDK7. The following applies: selective inhibition of CDK7, quoted in introduction; cited from earlier work.
Assay [6] deals with T1, phosphorylated CDK7 (p‐CDK7) (Homo sapiens, UniProt P50613). The assay can be described thus: Phospho‐CDK7 (Thr170) cell‐based ELISA, SUIT 2.28. Details: two PDAC preclinical models (SUIT 2.28 and PDAC3); endogenous in cells; host or cells: SUIT 2.28. The settings on record: SUIT 2.28, 4 × IC50, ELISA. On the procedure:
(§4) To detect CDK7 and phospho‐CDK7 levels at Thr170 residue after treatment, an enzyme‐linked immunosorbent assay (Biomatik, Phospho‐CDK7 (Thr170) Colorimetric Cell‐Based ELISA Kit, Cat# EKA51274) was performed according to the manufacturer's protocols. […] The absorbance was read at 450 nm using a microplate reader.

For assay [7], the target named is CDK7 (Homo sapiens, UniProt P50613). The assay can be described thus: In vitro CDK7 enzyme inhibition assay (ADP‐Glo). Details: purchased Promega Corporation VA7402. The settings on record: ADP‐Glo assay, mean of triplicate experiments; read-out: CDK7 inhibition activity IC50. In kind it is biochemical.
Protocol: The CDK7 enzyme inhibition assay was conducted using the ADP‐Glo Kinase Assay (VA7402, Promega Corporation, Madison, WI, USA) according to the manufacturer's instructions. In this assay, CDK7 catalyzes the conversion of ATP to ADP. The reaction was terminated by adding the ADP‐Glo reagent, which depletes residual ATP. Subsequently, the kinase detection reagent was introduced to convert ADP back into ATP, which was then measured via a luciferase reaction, producing luminescence. The assay was carried out at room temperature, using DMSO as the solvent for the tested compounds. Each compound was tested at eight different concentrations. […] Luminescence was recorded using a BioTek plate reader (BioTek Instruments Inc.), as previously described.^[ [39] ^] The percentage of enzyme inhibition was determined for each compound at different concentrations, and mean IC50 values of triplicate experiments were calculated using GraphPad Prism.
Assay [8] has as its system PDAC3. The assay can be described thus: SRB chemosensitivity assay, primary PDAC3 cells. The following applies: PDAC-3, SRB, primary cell line, average ± SEM, triplicate; read-out: IC50 PDAC3. In kind it is cell-based. On the procedure:
as §1, §2, §3

Assay [9] concerns PDAC cell lines. The assay can be described thus: SRB chemosensitivity assay, ranges over several PDAC cell lines. In kind it is cell-based. The following applies: range across the different cell lines. How it is done: as §1, with “Cells were then plated on 96‐ or 6‐well plates depending on the planned experiment.” left out
The Sulforhodamine B (SRB) chemosensitivity assay was used to measure cytotoxicity and cell proliferation post drug treatment. […] At day 1, cells were attached and ready to be treated. […] Lastly, the absorbance was measured at 492 nm with a spectrophotometer (Synergy HT, BioTek). The absorbance data obtained were normalized to the day 1 control, and the percentage of cell growth in relation to the control was calculated using the following formula. […]

Assay [10] concerns PSC. In words: SRB chemosensitivity assay, pancreatic stellate cells (PSC). In kind it is cell-based. The settings on record: Fibroblast; SRB, nontumorous immortalized pancreatic fibroblasts, average ± SEM, triplicate; read-out: IC50 PSC. How it is done: as §1
as §2, with “The plates were then washed with distillated water and left to dry under the hood with ventilation. Subsequently, plates were stained with 0.4% SRB for 15 min and washed with 1% acetic acid to remove excess stain. Once dried again, the protein‐bound SRB was dissolved in 10 mM TRIS, and the plates were placed on a shaker for 10 min per plate.” left out, “(1) %Cell growth=Mean OD treatment−Mean OD day0/Mean OD control−Mean OD day0×100” left out

In assay [11] the target is T1, phosphorylated CDK7 (p‐CDK7). In words: Phospho‐CDK7 (Thr170) cell‐based ELISA, PDAC3. Details: endogenous in cells; host or cells: PDAC3 primary cells. The following applies: PDAC3, 4 × IC50, ELISA. How it is done:
as §4
Background: ELISA stands for enzyme-linked immunosorbent assay.

Assay [12] deals with PATU‐T GR. In words: SRB chemosensitivity assay, gemcitabine resistant PATU‐T GR cells. In kind it is cell-based. The following applies: SRB, gemcitabine resistant PATU‐T GR, average ± SEM, triplicate; read-out: IC50 PATU‐GR. How it is done: as §1, §2
The percentage of proliferation and their respective standard deviations were used to perform statistical analysis in GraphPad Prism software v 10 (GraphPad Software, San Diego, CA). Data were normalized to the day 0 control and to their own untreated 72 h control. […]

Setting [13] is: SRB, 72 h of treatment, average ± SEM, triplicate.
Where [14] appears, read: PANC-1, SRB, 72 h of treatment, average ± SEM, triplicate.

Like-named read-outs stand apart in the source and are kept apart here. Where only a bound is given, the exact number is not on record here.

T1 sequence (P50613 2-346 limits assumed): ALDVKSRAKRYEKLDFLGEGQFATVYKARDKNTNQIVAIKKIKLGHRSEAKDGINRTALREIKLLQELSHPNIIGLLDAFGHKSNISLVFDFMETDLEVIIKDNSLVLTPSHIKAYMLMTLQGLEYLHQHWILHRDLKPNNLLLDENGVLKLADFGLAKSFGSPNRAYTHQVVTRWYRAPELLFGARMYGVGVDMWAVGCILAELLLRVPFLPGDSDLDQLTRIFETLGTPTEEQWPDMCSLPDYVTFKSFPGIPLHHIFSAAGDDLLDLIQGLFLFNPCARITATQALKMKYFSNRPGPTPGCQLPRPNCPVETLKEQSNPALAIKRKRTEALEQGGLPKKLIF
T1 sequence (P51946 whole entry partner): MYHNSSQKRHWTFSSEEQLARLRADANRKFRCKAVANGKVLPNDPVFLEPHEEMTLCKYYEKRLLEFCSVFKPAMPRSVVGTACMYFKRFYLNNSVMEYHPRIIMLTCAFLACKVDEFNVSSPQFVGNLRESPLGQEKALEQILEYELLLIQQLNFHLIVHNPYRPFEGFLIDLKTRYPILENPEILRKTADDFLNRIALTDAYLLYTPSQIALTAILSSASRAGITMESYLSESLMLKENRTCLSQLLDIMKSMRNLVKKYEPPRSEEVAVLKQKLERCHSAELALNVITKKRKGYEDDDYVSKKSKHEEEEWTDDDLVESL
T1 sequence (P51948 whole entry partner): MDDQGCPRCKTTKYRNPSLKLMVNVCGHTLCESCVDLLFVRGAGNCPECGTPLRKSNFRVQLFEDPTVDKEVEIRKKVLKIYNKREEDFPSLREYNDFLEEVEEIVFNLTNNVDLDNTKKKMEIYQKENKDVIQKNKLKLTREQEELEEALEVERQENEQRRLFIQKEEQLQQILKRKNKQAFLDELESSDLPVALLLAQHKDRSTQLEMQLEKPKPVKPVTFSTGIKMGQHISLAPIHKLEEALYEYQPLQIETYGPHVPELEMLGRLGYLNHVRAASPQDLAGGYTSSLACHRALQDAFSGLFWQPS
CDK7 (Homo sapiens, UniProt P50613), sequence (P50613 whole entry): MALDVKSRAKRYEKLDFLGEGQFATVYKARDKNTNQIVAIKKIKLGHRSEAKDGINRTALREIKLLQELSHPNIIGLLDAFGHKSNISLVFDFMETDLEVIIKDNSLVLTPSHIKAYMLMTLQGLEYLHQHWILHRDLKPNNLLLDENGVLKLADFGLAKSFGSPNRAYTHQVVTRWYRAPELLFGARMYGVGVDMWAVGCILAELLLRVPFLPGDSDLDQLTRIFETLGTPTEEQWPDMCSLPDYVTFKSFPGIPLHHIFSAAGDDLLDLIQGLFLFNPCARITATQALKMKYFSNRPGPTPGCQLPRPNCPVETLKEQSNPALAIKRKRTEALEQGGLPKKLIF
CDK7 (Homo sapiens, UniProt P50613), sequence (P51946 whole entry partner): as the sequence (P51946 whole entry partner) above
CDK7 (Homo sapiens, UniProt P50613), sequence (P51948 whole entry partner): as the sequence (P51948 whole entry partner) above

By IC50 is commonly meant the concentration needed to halve the response being measured. Take `Nc1ncnc2cc(-c3c[nH]c4ccc(Cl)cc34)nn12` [Compound 1c, 7‐(5‐Chloro‐1H‐indol‐3‐yl)pyrazolo[1,5‐a][1,3,5]triazin‐4‐amine]: the half-maximal inhibitory concentration (IC50) in assay [1] (setting [13]) turned out to be 400 ± 100 nM; in assay [2] (setting [14]) it was 8.7 ± 1.5 µM; in [3] (setting [13]) it was 1.9 ± 0.6 µM.

In the case of `Nc1ncnc2cc(-c3c[nH]c4ccc(F)cc34)nn12` [Compound 1d, 7‐(5‐Fluoro‐1H‐indol‐3‐yl)pyrazolo[1,5‐a][1,3,5]triazin‐4‐amine], the IC50 in assay [1] (setting [13]) is 600 ± 100 nM; in [2] (setting [14]), 9.6 ± 0.8 µM; in [3] (setting [13]), 3.5 ± 0.7 µM.

On to `COc1ccc2[nH]cc(-c3cc4ncnc(N)n4n3)c2c1` [Compound 1e, 7‐(5‐Methoxy‐1H‐indol‐3‐yl)pyrazolo[1,5‐a][1,3,5]triazin‐4‐amine], for which the half-maximal inhibitory concentration (IC50) was determined as 500 ± 100 nM in assay [1] (setting [13]), 8.8 ± 1.2 µM in assay [2] (setting [14]) and 4.7 ± 0.9 µM in assay [3] (setting [13]). Besides, the “inhibition of cell migration” value in assay [4] was “greatest inhibitory effect”.

In the case of `Cn1cc(-c2cc3ncnc(N)n3n2)c2cc(Cl)ccc21` [Compound 1h, 7‐(5‐Chloro‐1‐methyl‐1H‐indol‐3‐yl)pyrazolo[1,5‐a][1,3,5]triazin‐4‐amine], the IC50 in assay [1] (72 h) came out at 1600 ± 300 nM; in assay [2] (PANC-1, 72 h), 3.1 ± 0.7 µM; in assay [3] (72 h), 2 ± 0.3 µM.

On to `Cn1cc(-c2cc3ncnc(N)n3n2)c2cc(F)ccc21` [Compound 1i, 7‐(5‐Fluoro‐1‐methyl‐1H‐indol‐3‐yl)pyrazolo[1,5‐a][1,3,5]triazin‐4‐amine], for which the IC50 amounted to 500 ± 100 nM in assay [1] (72 h); 2.2 ± 0.4 µM in [2] (PANC-1, 72 h); 5.5 ± 1.1 µM in assay [3] (72 h).

With `COc1ccc2c(c1)c(-c1cc3ncnc(N)n3n1)cn2C` [Compound 1j, 7‐(5‐Methoxy‐1‐methyl‐1H‐indol‐3‐yl)pyrazolo[1,5‐a][1,3,5]triazin‐4‐amine], the IC50 in assay [1] (72 h) came out at 500 ± 100 nM; in assay [2] (PANC-1, 72 h), 2.4 ± 0.5 µM; in [3] (72 h) it was 4.7 ± 0.8 µM.

In the case of `CC(C)c1ccccc1CNc1nc(OC2CCN(C)CC2)nc2c(C(C)C)cnn12` [LDC3140], the half-inhibitory concentration (IC50) in [5] is below 5 nM.

As to `CC(C)c1cnn2c(NCc3ccccc3-n3cccn3)nc(OC3CCCNC3)nc12` (stereo not shown) [LDC4297, reference compound], the IC50 in assay [1] (setting [13]) is 30 ± 10 nM; in [2] (setting [14]) it was 0.02 ± 0.01 µM; in assay [5], below 5 nM; in [7], 7.5 nM; in assay [8], 100 ± 20 nM; in assay [3] (setting [13]) it was 0.03 ± 0.01 µM. For the same compound, the IC50 was 20 to 400 nM in assay [9], 110 ± 20 nM in assay [10] and 450 ± 90 nM in assay [12]. The “p‐CDK7 expression vs untreated” value in assay [6] and in assay [11] was “significant decrease in p‐CDK7 levels” throughout.

These data come from PMC12503906, “Novel Pyrazolo [1,5‐a]−1,3,5‐Triazine Derivatives as CDK7 Inhibitors: Synthesis and Biological Insights in Pancreatic Ductal Adenocarcinoma Models” (Chemmedchem, 2025).
